According to US4705777A, “Cationic oligopeptides having microbicidal activity” (priority 1985, dated 1987):

Assays:
[1] = test system: Hemophilus influenzae Type 3A; assay: Antibacterial activity of rabbit granulocyte peptides (Table III), H. influenzae; format: cell-based; conditions: 50 μg/ml, 20 min, 37° C., 10 mM sodium phosphate buffer pH 7.4
Experimental: (§1) The procedure parallels that reported in Lehrer et al., Infection and Immunity (1983) 42:10-14. […] The subculture was grown at 37° C. for 4 h with shaking to provide mid-logarithmic phase organisms that were washed twice with buffer by centrifugation (2000×g, 10 min), and then quantitated spectrophotometrically at 620 nm, with reference to previously established CFU/Optical Density relationships. Bacteria were suspended and experiments were performed in 10 mM sodium phosphate buffer, pH 7.4. In some experiments, buffers were supplemented with 0.14 M NaCl ("high" ionic strength). […] In some experiments, 10 mM phosphate buffer with a pH of 5.8 and conductivity of 1.36 mMHO was used. Peptide "stock solutions" were prepared at 500 μg/ml (microbiuret assay) in 0.01% acetic acid, and stored at -20° C. Typically, incubation mixtures contained 1×10^5 bacterial CFU and 5 μg of peptide in 100 μl of buffer. After incubation for 20 min at 37° C., 900 μl of the same buffer was added, and two additional serial tenfold dilutions were made with that buffer. Duplicate 100 μl aliquots from the three serial dilutions were spread over appropriate nutrient agar plates and incubated for 24-72 h to insure full colony development. Killing of microorganisms was expressed as the logarithm10 No /N, where No represented the initial colony count and N represented the colony count after incubation with peptide. There was no significant alteration in colony count when any of the test organisms were exposed to peptide-free buffer for 20 min.

[2] = test system: Bordetella bronchiseptica UCLA-342; assay: Antibacterial activity of rabbit granulocyte peptides (Table III), B. bronchiseptica; format: cell-based; conditions: 50 μg/ml, 20 min, 37° C., 10 mM sodium phosphate buffer pH 7.4
Experimental: as §1

Ps. aeruginosa = assay: Antibacterial action, % killing (Table II), Ps. aeruginosa; format: cell-based, Pseudomonas aeruginosa; conditions: 50 μg/ml peptide, 10^7 bacterial cells/ml, 20 min, 37°
Experimental: (§2) To test antibacterial action of the polypeptides, the following protocol was employed. Various species at 10^7 bacterial cells/ml are incubated for 20 min at 37° with 50 μg/ml of the candidate peptide. Colony counts (viable organisms) are made at the outset of the incubation--beforeaddition of the candidate peptide--and after 20 min of incubation with the candidate peptide.

[3] = test system: Klebsiella pneumoniae ATCC 13883; assay: Antibacterial activity of rabbit granulocyte peptides (Table III), K. pneumoniae; format: cell-based; conditions: 50 μg/ml, 20 min
Experimental: as §1

[4] = test system: Listeria monocytogenes 450; assay: Antibacterial activity of rabbit granulocyte peptides (Table III), L. monocytogenes; format: cell-based; conditions: 50 μg/ml, 20 min
Experimental: as §1

[5] = test system: Staphylococcus aureus J.F.; assay: Antibacterial activity of rabbit granulocyte peptides (Table III), S. aureus J.F.; format: cell-based; conditions: 50 μg/ml, 20 min, 37° C., 10 mM sodium phosphate buffer pH 7.4
Experimental: as §1

[6] = test system: Staphylococcus aureus 502A; assay: Antibacterial activity of rabbit granulocyte peptides (Table III), S. aureus 502A; format: cell-based; conditions: 50 μg/ml, 20 min, 37° C., 10 mM sodium phosphate buffer pH 7.4
Experimental: as §1

[7] = test system: Streptococcus agalactiae Type IIIU; assay: Antibacterial activity of rabbit granulocyte peptides (Table III), S. agalactiae Type IIIU; format: cell-based; conditions: 50 μg/ml, 20 min, 37° C., 10 mM sodium phosphate buffer pH 7.4
Experimental: as §1

[8] = test system: Staphylococcus aureus 566; assay: Antibacterial activity of rabbit granulocyte peptides (Table III), S. aureus 566; format: cell-based; conditions: 50 μg/ml, 20 min, 37° C., 10 mM sodium phosphate buffer pH 7.4
Experimental: as §1

[9] = test system: Streptococcus pneumoniae Type III; assay: Antibacterial activity of rabbit granulocyte peptides (Table III), S. pneumoniae; format: cell-based; conditions: 50 μg/ml, 20 min, 37° C., 10 mM sodium phosphate buffer pH 7.4
Experimental: as §1

[10] = test system: Escherichia coli ATCC 29648; assay: Antibacterial activity of rabbit granulocyte peptides (Table III), E. coli; format: cell-based; conditions: 50 μg/ml, 20 min, 37° C., 10 mM sodium phosphate buffer pH 7.4
Experimental: as §1

E. coli = assay: Antibacterial action, % killing (Table II), E. coli; format: cell-based, Escherichia coli; conditions: 50 μg/ml peptide, 10^7 bacterial cells/ml, 20 min, 37°
Experimental: as §2

S. aureus 502A = assay: Antibacterial action, % killing (Table II), S. aureus 502A; format: cell-based, Staphylococcus aureus; conditions: 50 μg/ml peptide, 10^7 bacterial cells/ml, 20 min, 37°
Experimental: as §2

[11] = test system: Pseudomonas aeruginosa PAO 579; assay: Antibacterial activity of rabbit granulocyte peptides (Table III), P. aeruginosa; format: cell-based; conditions: 50 μg/ml, 20 min
Experimental: as §1

Streptococcus Group B = assay: Antibacterial action, % killing (Table II), Streptococcus Group B; format: cell-based; conditions: 50 μg/ml peptide, 10^7 bacterial cells/ml, 20 min, 37°
Experimental: as §2

[12] = test system: Staphylococcus epidermidis UCLA-622; assay: Antibacterial activity of rabbit granulocyte peptides (Table III), S. epidermidis; format: cell-based; conditions: 50 μg/ml, 20 min, 37° C., 10 mM sodium phosphate buffer pH 7.4
Experimental: as §1

S. albus = assay: Antibacterial action, % killing (Table II), S. albus; format: cell-based, Staphylococcus albus; conditions: 50 μg/ml peptide, 10^7 bacterial cells/ml, 20 min, 37°
Experimental: as §2

L. monocytogenes = assay: Antibacterial action, % killing (Table II), L. monocytogenes; format: cell-based, Listeria monocytogenes; conditions: 50 μg/ml peptide, 10^7 bacterial cells/ml, 20 min, 37°
Experimental: as §2

[13] = test system: Streptococcus agalactiae Type-I-A; assay: Antibacterial activity of rabbit granulocyte peptides (Table III), S. agalactiae Type-I-A; format: cell-based; conditions: 50 μg/ml, 20 min
Experimental: as §1

Serratia marcescens = assay: Antibacterial activity of rabbit granulocyte peptides (Table III), S. marcescens; format: cell-based; conditions: 50 μg/ml, 20 min, 37° C., 10 mM sodium phosphate buffer pH 7.4
Experimental: as §1

[14] = 37° C., 10 mM sodium phosphate buffer pH 7.4
[15] = buffer pH 7.4 supplemented with 0.14 M NaCl

## val val cys ala cys arg arg ala leu cys leu pro leu glu arg arg ala gly phe cys arg ile arg gly arg ile his pro leu cys cys arg arg [NP-2]
[1]
  Bactericidal activity log10 No /N, Hemophilus influenzae Type 3A: 2.0 log10
[2]
  Bactericidal activity log10 No /N, Bordetella bronchiseptica UCLA-342: 0.1 log10
Ps. aeruginosa
  % Killing, Ps. aeruginosa: A (>99% killing)
[3]; 10 mM phosphate buffer pH 5.8
  Bactericidal activity log10 No /N, Klebsiella pneumoniae ATCC 13883, pH 5.8: 0.5 log10
[3]; [14]
  Bactericidal activity log10 No /N, Klebsiella pneumoniae ATCC 13883: 1.1 log10
[3]; [15]
  Bactericidal activity log10 No /N, Klebsiella pneumoniae ATCC 13883, "High" ionic strength: 0.0 log10
[4]; 10 mM phosphate buffer pH 5.8
  Bactericidal activity log10 No /N, Listeria monocytogenes 450, pH 5.8: 0.1 log10
[4]; [14]
  Bactericidal activity log10 No /N, Listeria monocytogenes 450: 2.1 log10
[4]; [15]
  Bactericidal activity log10 No /N, Listeria monocytogenes 450, "High" ionic strength: 0.2 log10
[5]
  Bactericidal activity log10 No /N, Staphylococcus aureus J.F.: 2.9 log10
[6]
  Bactericidal activity log10 No /N, Staphylococcus aureus 502A: 2.4 log10
[7]
  Bactericidal activity log10 No /N, Streptococcus agalactiae Type IIIU: 2.9 log10
[8]
  Bactericidal activity log10 No /N, Staphylococcus aureus 566: > 4.1 log10
[9]
  Bactericidal activity log10 No /N, Streptococcus pneumoniae Type III: > 3.5 log10
[10]
  Bactericidal activity log10 No /N, Escherichia coli ATCC 29648: 0.8 log10
E. coli
  % Killing, E. coli: B (90-99% killing)
S. aureus 502A
  % Killing, S. aureus 502A: D (<50% killing)
[11]; 10 mM phosphate buffer pH 5.8
  Bactericidal activity log10 No /N, Pseudomonas aeruginosa PAO 579, pH 5.8: 0.2 log10
[11]; [14]
  Bactericidal activity log10 No /N, Pseudomonas aeruginosa PAO 579: 3.2 log10
[11]; [15]
  Bactericidal activity log10 No /N, Pseudomonas aeruginosa PAO 579, "High" ionic strength: 0.0 log10
Streptococcus Group B
  % Killing, Streptococcus Group B: C (50-90% killing)
[12]
  Bactericidal activity log10 No /N, Staphylococcus epidermidis UCLA-622: > 4.1 log10
S. albus
  % Killing, S. albus: B (90-99% killing)
L. monocytogenes
  % Killing, L. monocytogenes: A (>99% killing)
[13]; 10 mM phosphate buffer pH 5.8
  Bactericidal activity log10 No /N, Streptococcus agalactiae Type 1A, pH 5.8: 0.1 log10
[13]; [14]
  Bactericidal activity log10 No /N, Streptococcus agalactiae Type-I-A: 2.0 log10
[13]; [15]
  Bactericidal activity log10 No /N, Streptococcus agalactiae Type 1A, "High" ionic strength: 0.1 log10
Serratia marcescens
  Bactericidal activity log10 No /N, Serratia marcescens: 1.0 log10
